Assay results as given in patent US20030166554A1, “Treatment of CNS disorders using D-amino acid oxidase and D-aspartate oxidase antagonists” (GENSET, S.A., priority 2001, published 2003).

Key:
[1] = system: PCP-induced hyperactivity in male Swiss mice; assay: Locomotor hyperactivity induced by PCP in mice (open field); assay type: in vivo; conditions: 30 minute open field, mean +/- s.e.m.
Method: Randomized groups of 10 male Swiss mice (9 weeks old, Elevage Janvier; Le Genest-St-Isle, France) were used for each study.
Mice were group-housed and maintained in an incubator with controlled temperature (21-22° C.) and a reversed light-dark cycle (12 h/12 h) with food and water available ad libitum. All experiments were carried out in accordance with institutional guidelines.
It is well known to those skilled in the art that phencyclidine (PCP) intoxication in mice closely mimics schizophrenia and therefore is commonly used as an animal model of schizophrenia. In the following experiments, the ability of the DAO inhibitor, sodium benzoate, to reverse PCP-induced hyperactivity was monitored. PCP and the test compound, sodium benzoate, were diluted in a 0.9% sterile aqueous solution of sodium chloride (1 mg/ml). Sodium benzoate was administered by intraperitoneal injection (IP) 2 hours before administration of PCP (0.3 mg/kg by subcutaneous (SC) injection 15 minutes before start of the test). The animals were placed into an open field, which was divided into nine equal squares. A video track (Viewpoint system) was placed over a Plexiglas open field (OF; length 52 cm×52 cm; height 40 cm) and animal activity was recorded. Over a 30 minute time period, two parameters were recorded: (a) number of crossed squares and (b) total distance walked.
A global analysis of the data was performed using a one way ANOVA followed by a Dunnett's test if possible. The level of significance was set at p<0.05. Results were expressed was mean +/− standard error of the mean (s.e.m.).

Pig kidney DAAO = biological target: T1, Pig kidney DAAO (Sus scrofa, UniProt P00371); assay: DAAO kinetics in the presence of g34872 protein (D-serine substrate); assay type: biochemical; conditions: 20° C.
T1 construct: The crude preparation of pig kidney DAAO was purchased from Sigma; purchased Sigma; host or cells: pig kidney tissue; purified further in house (Sephadex G-50, DEAE-Sepharose, Ultragel AcA44)
Method: (§1) The assay mixture was typically composed of D-serine (Aldrich) 200 mM, FAD (Sigma) at 0.1 mM, sodium phosphate buffer pH8 at 75 mM, HR-peroxidase (Sigma) 1U/ml. The mixture was air-saturated just before use. o-Dianizidine (Sigma) was added in the mixture. In the typical assay 5 μl of the enzyme (DAAO and mixes) was added to 25 μl of the assay mixture, the incubation was stopped with 50 μl of 20% H2SO4. The activity was observed as absorbance of the peroxidase-oxidized o-Dianizidine at 540 nm. The reactions containing high protein concentrations were centrifuged 15 min at 14000 rpm before absorbance measuring.
Pig kidney DAAO was mixed with g34872 in PBS and incubated 30 min at 20° C. DAAO concentration was 200 ng/μl and g34872 concentration was 2 μg/μl in the protein mixture. The control mixture (without g34872) was composed of 200 ng/μl DAAO and 2 μg/μl BSA. The enzymatic activity of DAAO was measured at 20° C. with D-serine, the substrate concentration used were from 0 to 100 mM, other corposants of the mixture and pH were standard.

hDAAO = biological target: T2, hDAAO (Homo sapiens, UniProt P14920); assay: DAAO activity of combined yeast extracts expressing hDAAO and g34872; assay type: biochemical; conditions: D-serine, 37° C., FIG. 1
T2 construct: made in house; host or cells: Saccharomyces cerevisiae (YPH499 and FY1679-18B strains), pESC-Leu vector, galactose induction; crude extract
Method: as §1
Yeast cells were transformed with the plasmids constructed in pESC-Leu expression vector. One plasmid can express hDAAO, second one—C-terminal tagged g34872, third—is the vector without insertion (control). After the induction of the expression (2% galactose in the medium) these cells were incubated for 24 h, than the extracts were maid and combined as follow: different volumes of DAAO extract were mixed with either g34872-cHis6 or with the vector extracts. The same volumes of DAAO extracts were also mixed with BSA (external control). After 30min of the pre-incubation the combined extracts were used for DAAO activity measuring. All yeast extracts and BSA solution had the same total protein concentration. DAAO activity was determined with D-serine at 37° C.

HR-peroxidase = assay: Peroxidase control assay (hydrogen peroxide substrate); assay type: biochemical; conditions: conditions identical to DAAO assay
From the text: The assay of peroxidase was done in the conditions identical to those for DAAO assay; hydrogen peroxide (Gibco) was used as a substrate, and no effect of g34872 on HRP activity was confirmed.

[2] = PCP alone 0.3 mg/kg SC 15 minutes before test
[3] = sodium benzoate 400 mg/kg IP 2 hours before PCP 0.3 mg/kg SC

T1 sequence (P00371 whole entry): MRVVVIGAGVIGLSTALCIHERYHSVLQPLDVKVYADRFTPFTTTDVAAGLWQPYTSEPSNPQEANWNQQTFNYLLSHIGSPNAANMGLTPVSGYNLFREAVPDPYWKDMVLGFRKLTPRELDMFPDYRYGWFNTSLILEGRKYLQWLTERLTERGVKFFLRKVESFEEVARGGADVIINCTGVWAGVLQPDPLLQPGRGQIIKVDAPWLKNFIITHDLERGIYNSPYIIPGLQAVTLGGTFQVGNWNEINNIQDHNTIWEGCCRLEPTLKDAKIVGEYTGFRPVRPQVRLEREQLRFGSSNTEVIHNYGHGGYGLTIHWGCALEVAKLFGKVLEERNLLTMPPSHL
T2 sequence (P14920 whole entry): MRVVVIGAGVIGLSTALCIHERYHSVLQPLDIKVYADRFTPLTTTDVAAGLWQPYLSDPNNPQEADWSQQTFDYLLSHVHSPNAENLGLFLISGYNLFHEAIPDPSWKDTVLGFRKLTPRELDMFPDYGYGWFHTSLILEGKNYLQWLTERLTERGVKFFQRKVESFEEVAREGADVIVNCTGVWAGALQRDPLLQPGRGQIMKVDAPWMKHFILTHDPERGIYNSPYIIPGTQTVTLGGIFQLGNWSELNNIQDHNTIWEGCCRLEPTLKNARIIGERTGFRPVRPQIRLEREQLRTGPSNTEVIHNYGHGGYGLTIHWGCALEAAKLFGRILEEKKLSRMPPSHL

Question: What does the source list for `c1ccc(C2(N3CCCCC3)CCCCC2)cc1` [PCP, phencyclidine]?
Answer: number of crossed squares [1, 2]: 977.0+/−64.6; total distance walked [1, 2]: 18781.8+/−1447.5

Question: For `O=C([O-])c1ccccc1.[Na+]` [sodium benzoate], which total distance walked ([1]; sodium benzoate 125 mg/kg IP 2 hours before PCP 0.3 mg/kg SC) is on record?
Answer: 14807.7+/−756.8

Question: What about the “number of crossed squares” value [1, 3] of the same molecule?
Answer: 740.1+/−114.1

Question: And the total distance walked [1, 3]?
Answer: 13521.0+/−1705.6

B1: g34872: purified recombinant g34872 protein, binding partner and activator of DAO (protein)
chain: HEDGYLEMAQRHLQRSLCPWVSYLPQPYAELEEVSSHVGKVFMARNYEFLAYEASKDRRQPLERMWTCNYNQQKDQSCNHKEITSTKAE
Question: B1 was tested. Which Km (Pig kidney DAAO; g34872&DAAO mix: DAAO 200 ng/μl, g34872 2 μg/μl, D-serine 0 to 100 mM) did it give?
Answer: 4 mM

Question: And the “effect of g34872 on DAAO (mode of action)” value (Pig kidney DAAO; pig kidney DAAO, D-serine)?
Answer: Allosteric Activator

Question: And the “effect on DAO activity” value (hDAAO)?
Answer: activates DAO

Question: And the “effect on HRP activity” value (HR-peroxidase)?
Answer: no effect
